Source: patent US20220153751A1, “BIFUNCTIONAL COMPOUNDS” (BioTheryX, Inc., priority 2018, published 2022)

Columns and labels:
Assay type in all cases: cell-based
IKAROS = target: T1, IKAROS (Homo sapiens, UniProt Q13422+Q96SW2); assay: IKAROS degradation assay (Western blot, MV-4-11 cells); settings: MV4-11, 6-8 h
T1 construct: endogenous in cells; host or cells: MV-4-11
How it was run: (§1)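 Western blot, infrared fluorescence read-out: % degradation versus DMSO after 6-8 h compound treatment of ~10^6 cells/mL. RIPA whole-cell lysates on 4-12% gels, nitrocellulose transfer. Binned A <25%, B 25–<50%, C 50–<75%, D ≥75%.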

TNF-α = TNF-α inhibition assay, LPS-induced PBMCs / CD14+ monocytes (Meso Scale); settings: 1 h pretreatment, 100 ng/mL LPS 18-24 h
How it was run: (§2)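 Thawed human PBMCs or CD14+ mobilized peripheral blood monocytes, 200,000 cells/well in RPMI-1640/10% FBS, pretreated with compound or DMSO 1 h, then stimulated with 100 ng/mL LPS for 18-24 h. Supernatant cytokine measured by Meso Scale; % inhibition binned A–D (<50%, 50–70%, 70–90%, ≥90%), fold-change binned A–D (≤0.1, ≤0.5, ≤1, >1).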

IL-2 = IL-2 fold-change assay, anti-CD3 stimulated PBMCs (Mesoscale); settings: PBMC, PBMCs on anti-human CD3, 24 h, fold difference from the DMSO control
Protocol: For the IL-2 analysis, 96 well plates were precoated with 1 μg/mL anti-human CD3 antibody (OK3, eBioscience Inc., San Diego, Calif.). After washing with PBS, the indicated compound was added (50 μL/well) followed by PBMCs diluted at 3-4 million cells/mL (150 μL/well). Plates were incubated for 24 h and the supernatants collected for Mesoscale IL-2 analysis. IL-2 activity is measured as fold difference from the DMSO control.
In Table 6, the % inhibition values are reported as “A”, “B”, “C”, or “D”. “A” represents a % inhibition value of less than 50% (value <50%). “B” represents a % inhibition value of equal to or more than 50% and less than 70% (50%≤value<70%). “C” represents a % inhibition value of equal to or more than 70% and less than 90% (70%≤value<90%). “D” represents a % inhibition value of equal or more than 90% (value ≥90%). In Table 7, the fold-change values are reported as “A”, “B”, “C”, or “D”. “A” represents a fold-change value of equal to or less than 0.1 (value ≤0.1). “B” represents a fold-change value of more than 0.1 and equal to or less than 0.5 (0.1<value≤0.5). “C” represents a fold-change value of more than 0.5 and equal to or less than 1 (0.5<value≤1). “D” represents a fold-change value of more than 1 (value >1).

IL-1β = IL-1β inhibition assay, LPS-induced PBMCs / CD14+ monocytes (Meso Scale); settings: 1 h pretreatment, 100 ng/mL LPS 18-24 h
How it was run: as §2

IL-6 = IL-6 inhibition assay, LPS-induced PBMCs / CD14+ monocytes (Meso Scale); settings: 1 h pretreatment, 100 ng/mL LPS 18-24 h
How it was run: as §2

MOLM-13 cells = assay: MOLM-13 cell viability assay (CellTiter-Glo); settings: Homo sapiens, MOLM-13, 72 h, 3 days, read-out: MOLM-13 Cell Viability % DMSO at 1 μM
How it was run: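 MOLM-13 cells at 2500 cells/well were exposed to compound for 3 days at 37 °C. Viability was read by CellTiter-Glo luminescence and expressed as % of DMSO control, binned A (<50%), B (50–<70%), C (70–<90%) or D (≥90%).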

GSPT1 = target: T2, GSPT1 (Homo sapiens, UniProt P15170+Q96SW2); assay: GSPT1 degradation assay (Western blot, MV-4-11 cells); settings: MV4-11, 6-8 h
T2 construct: Whole cell extracts were prepared using RIPA buffer; endogenous in cells; host or cells: MV-4-11
How it was run: as §1

CDK16 = target: T3, CDK16 (Homo sapiens, UniProt Q00536); assay: CDK16 degradation assay (Western blot, MV-4-11 cells); settings: 6-8 h; for Dmax at 0.1 µM: MV4-11, 0.1 μM; for Dmax at 1 µM: MV4-11, 1 μM
T3 construct: Whole cell extracts were prepared using RIPA buffer; endogenous in cells; host or cells: MV-4-11
How it was run: as §1

CDK9 = target: T4, CDK9 (Homo sapiens, UniProt P50750); assay: CDK9 degradation assay (Western blot, MV-4-11 cells); settings: 6-8 h; for Dmax at 0.1 µM: MV4-11, 0.1 μM; for Dmax at 1 µM: MV4-11, 1 μM
T4 construct: Whole cell extracts were prepared using RIPA buffer; endogenous in cells; host or cells: MV-4-11
How it was run: as §1

T4 sequence (P50750 whole entry): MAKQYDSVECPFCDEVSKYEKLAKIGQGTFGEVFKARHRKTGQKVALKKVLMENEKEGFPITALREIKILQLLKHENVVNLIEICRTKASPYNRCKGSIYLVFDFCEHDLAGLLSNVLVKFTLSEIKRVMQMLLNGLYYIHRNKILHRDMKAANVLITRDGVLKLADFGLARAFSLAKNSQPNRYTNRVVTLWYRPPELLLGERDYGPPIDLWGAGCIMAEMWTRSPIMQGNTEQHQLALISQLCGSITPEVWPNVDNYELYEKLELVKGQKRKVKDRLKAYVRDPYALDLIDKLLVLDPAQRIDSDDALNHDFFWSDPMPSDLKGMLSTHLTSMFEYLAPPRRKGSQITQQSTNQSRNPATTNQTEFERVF
T3 sequence (Q00536 whole entry): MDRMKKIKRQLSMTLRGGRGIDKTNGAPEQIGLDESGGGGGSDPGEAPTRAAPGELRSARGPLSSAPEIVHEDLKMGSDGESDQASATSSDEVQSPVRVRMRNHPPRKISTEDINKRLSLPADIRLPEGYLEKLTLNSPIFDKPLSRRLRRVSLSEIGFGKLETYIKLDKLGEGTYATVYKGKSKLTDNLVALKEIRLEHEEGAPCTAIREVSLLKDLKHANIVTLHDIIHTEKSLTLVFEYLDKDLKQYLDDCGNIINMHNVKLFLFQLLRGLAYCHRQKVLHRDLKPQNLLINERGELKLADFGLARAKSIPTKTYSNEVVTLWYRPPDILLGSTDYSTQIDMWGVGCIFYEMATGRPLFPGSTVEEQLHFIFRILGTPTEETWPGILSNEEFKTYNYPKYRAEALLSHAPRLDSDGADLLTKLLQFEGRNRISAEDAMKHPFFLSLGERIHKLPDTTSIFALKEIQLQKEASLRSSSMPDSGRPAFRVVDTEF
T1 sequence (Q13422 whole entry): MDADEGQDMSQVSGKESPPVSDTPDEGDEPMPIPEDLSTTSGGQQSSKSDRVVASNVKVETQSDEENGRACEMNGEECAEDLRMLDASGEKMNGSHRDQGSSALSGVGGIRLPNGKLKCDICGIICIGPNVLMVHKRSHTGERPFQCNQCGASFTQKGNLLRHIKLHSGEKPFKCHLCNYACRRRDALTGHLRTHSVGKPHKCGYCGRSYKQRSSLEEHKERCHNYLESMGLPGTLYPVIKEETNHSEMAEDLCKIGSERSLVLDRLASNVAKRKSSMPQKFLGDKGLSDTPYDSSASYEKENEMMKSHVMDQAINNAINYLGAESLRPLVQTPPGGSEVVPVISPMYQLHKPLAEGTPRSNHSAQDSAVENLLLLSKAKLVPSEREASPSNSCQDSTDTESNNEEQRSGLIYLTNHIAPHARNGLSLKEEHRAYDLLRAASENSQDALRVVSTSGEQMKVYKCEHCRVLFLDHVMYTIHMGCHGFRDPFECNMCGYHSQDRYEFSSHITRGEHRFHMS
T1 sequence (Q96SW2 whole entry): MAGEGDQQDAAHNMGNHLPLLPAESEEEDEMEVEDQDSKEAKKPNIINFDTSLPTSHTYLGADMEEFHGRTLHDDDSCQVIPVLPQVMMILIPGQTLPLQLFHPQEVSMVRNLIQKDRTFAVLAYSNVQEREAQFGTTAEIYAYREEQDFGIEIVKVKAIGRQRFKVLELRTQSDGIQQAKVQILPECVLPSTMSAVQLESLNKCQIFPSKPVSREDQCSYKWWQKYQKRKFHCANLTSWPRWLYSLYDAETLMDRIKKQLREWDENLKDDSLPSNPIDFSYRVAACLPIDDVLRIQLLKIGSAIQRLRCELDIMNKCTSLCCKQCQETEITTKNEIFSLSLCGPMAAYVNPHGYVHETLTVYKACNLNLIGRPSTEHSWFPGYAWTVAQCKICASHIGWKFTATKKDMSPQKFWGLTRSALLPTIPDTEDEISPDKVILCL
T1 sequence (Q16531 whole entry partner): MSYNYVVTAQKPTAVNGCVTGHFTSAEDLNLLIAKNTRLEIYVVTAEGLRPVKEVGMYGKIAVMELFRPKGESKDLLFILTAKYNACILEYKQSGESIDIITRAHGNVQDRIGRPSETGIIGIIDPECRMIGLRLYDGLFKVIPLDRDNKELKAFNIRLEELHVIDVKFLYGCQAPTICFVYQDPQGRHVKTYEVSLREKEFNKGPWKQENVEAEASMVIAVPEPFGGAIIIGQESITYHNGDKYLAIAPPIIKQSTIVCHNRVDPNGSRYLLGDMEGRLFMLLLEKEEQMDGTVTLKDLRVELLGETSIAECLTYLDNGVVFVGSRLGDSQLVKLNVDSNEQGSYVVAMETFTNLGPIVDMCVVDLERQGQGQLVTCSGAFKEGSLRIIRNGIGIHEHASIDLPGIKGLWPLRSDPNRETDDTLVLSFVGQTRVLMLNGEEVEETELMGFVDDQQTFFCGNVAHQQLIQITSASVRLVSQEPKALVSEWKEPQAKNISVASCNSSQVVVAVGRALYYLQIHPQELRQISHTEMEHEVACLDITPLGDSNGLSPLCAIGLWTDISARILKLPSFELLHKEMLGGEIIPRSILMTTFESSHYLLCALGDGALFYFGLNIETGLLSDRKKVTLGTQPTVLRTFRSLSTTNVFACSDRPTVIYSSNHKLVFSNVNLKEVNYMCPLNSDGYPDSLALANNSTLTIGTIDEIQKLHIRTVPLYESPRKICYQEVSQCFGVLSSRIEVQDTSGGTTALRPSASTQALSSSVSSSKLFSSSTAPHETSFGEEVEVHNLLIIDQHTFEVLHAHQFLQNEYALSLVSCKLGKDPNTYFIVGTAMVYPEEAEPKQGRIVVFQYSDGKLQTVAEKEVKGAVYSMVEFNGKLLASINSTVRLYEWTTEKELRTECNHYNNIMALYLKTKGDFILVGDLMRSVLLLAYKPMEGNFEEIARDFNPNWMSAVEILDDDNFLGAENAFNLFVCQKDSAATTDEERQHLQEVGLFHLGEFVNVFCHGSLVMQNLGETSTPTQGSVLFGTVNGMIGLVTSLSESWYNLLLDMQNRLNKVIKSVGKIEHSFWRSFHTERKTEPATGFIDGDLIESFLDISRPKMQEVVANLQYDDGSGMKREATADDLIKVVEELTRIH
T2 sequence (P15170 whole entry): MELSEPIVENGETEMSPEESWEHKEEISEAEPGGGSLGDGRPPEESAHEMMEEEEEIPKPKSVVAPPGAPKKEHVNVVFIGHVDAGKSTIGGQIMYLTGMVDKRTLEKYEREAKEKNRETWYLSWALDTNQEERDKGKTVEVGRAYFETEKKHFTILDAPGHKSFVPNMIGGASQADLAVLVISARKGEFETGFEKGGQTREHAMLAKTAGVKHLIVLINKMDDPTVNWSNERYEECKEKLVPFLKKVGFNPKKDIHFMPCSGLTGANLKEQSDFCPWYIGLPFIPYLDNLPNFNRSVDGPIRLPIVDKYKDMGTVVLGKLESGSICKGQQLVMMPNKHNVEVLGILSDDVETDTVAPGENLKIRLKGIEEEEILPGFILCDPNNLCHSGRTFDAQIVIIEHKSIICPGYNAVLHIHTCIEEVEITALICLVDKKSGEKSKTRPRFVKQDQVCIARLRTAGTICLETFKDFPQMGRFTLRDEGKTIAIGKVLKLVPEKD
T2 sequence (Q96SW2 whole entry): as the sequence (Q96SW2 whole entry) above
T2 sequence (Q16531 whole entry partner): as the sequence (Q16531 whole entry partner) above

Dmax at 1 µM (IKAROS) [%] | Dmax at 1 µM (GSPT1) [%] | Dmax at 0.1 µM (CDK16) [%] | Dmax at 1 µM (CDK16) [%] | Dmax at 0.1 µM (CDK9) [%] | Dmax at 1 µM (CDK9) [%] | SMILES | inhibition at 1 µM (TNF-α) [%] | fold induction at 1 µM (IL-2) | inhibition at 1 µM (IL-1β) [%] | inhibition at 1 µM (IL-6) [%] | viability at 1 µM (MOLM-13 cells) [%]
50 to 75 | < 25 | – | – | – | – | Cn1ncc(-c2nc(N[C@H]3CC[C@H](NCC(=O)NCCOCCOCC(=O)NCc4ccc(COc5cccc6c5CN(C5CCC(=O)NC5=O)C6=O)cc4)CC3)ncc2Cl)c1CC1CC1 (stereo partly drawn) [Compound 28, 2-(((1r,4r)-4-((5-chloro-4-(5-(cyclopropylmethyl)-1-methyl-1H-pyrazol-4-yl)pyrimidin-2-yl)amino)cyclohexyl)amino)-N-(2-(2-(2-((4-(((2-(2,6-dioxopiperidin-3-yl)-1-oxoisoindolin-4-yl)oxy)methyl)benzyl)amino)-2-oxoethoxy)ethoxy)ethyl)acetamide] | > 90 | ≤ 0.1 | > 90 | > 90 | > 90
50 to 75 | – | 25 to 50 | < 25 | 50 to 75 | ≥ 75 | CC(C)(C)c1cnc(CSc2cnc(NC(=O)C3CCN(CC(=O)NCCOCCOCCNCC(=O)NCc4scc5c4CN(C4CCC(=O)NC4=O)C5=O)CC3)s2)o1 (stereo not drawn) [Compound 26, N-(5-(((5-(tert-butyl)oxazol-2-yl)methyl)thio)thiazol-2-yl)-1-(1-(5-(2,6-dioxopiperidin-3-yl)-4-oxo-5,6-dihydro-4H-thieno[3,4-c]pyrrol-1-yl)-3,15-dioxo-8,11-dioxa-2,5,14-triazahexadecan-16-yl)piperidine-4-carboxamide] | 70 to 90 | ≤ 0.1 | > 90 | > 90 | > 90
25 to 50 | – | < 25 | < 25 | 25 to 50 | ≥ 75 | CC(C)(C)c1cnc(CSc2cnc(NC(=O)C3CCN(CC(=O)NCCOCCOCCOCCNCC(=O)NCc4cc5c(s4)C(=O)N(C4CCC(=O)NC4=O)C5)CC3)s2)o1 (stereo not drawn) [Compound 42, N-(5-(((5-(tert-butyl)oxazol-2-yl)methyl)thio)thiazol-2-yl)-1-(1-(5-(2,6-dioxopiperidin-3-yl)-6-oxo-5,6-dihydro-4H-thieno[2,3-c]pyrrol-2-yl)-3,18-dioxo-8,11,14-trioxa-2,5,17-triazanonadecan-19-yl)piperidine-4-carboxamide] | < 50 | 0.1 to 0.5 | > 90 | > 90 | 70 to 90
25 to 50 | – | – | – | – | – | CC(C)(C)c1cnc(CSc2cnc(NC(=O)C3CCN(CCCCCCCNCC(=O)NCc4cc5c(s4)C(=O)N(C4CCC(=O)NC4=O)C5)CC3)s2)o1 (stereo not drawn) [Compound 57, N-(5-(((5-(tert-butyl)oxazol-2-yl)methyl)thio)thiazol-2-yl)-1-(7-((2-(((5-(2,6-dioxopiperidin-3-yl)-6-oxo-5,6-dihydro-4H-thieno[2,3-c]pyrrol-2-yl)methyl)amino)-2-oxoethyl)amino)heptyl)piperidine-4-carboxamide] | > 90 | ≤ 0.1 | > 90 | > 90 | > 90
25 to 50 | – | – | – | – | – | CC(C)(C)c1cnc(CSc2cnc(NC(=O)C3CCN(CC(=O)NCCOCCNC(=O)NCc4scc5c4CN(C4CCC(=O)NC4=O)C5=O)CC3)s2)o1 (stereo not drawn) [Compound 2, 3-{6-Oxo-2-[(3-{2-[2-(2-{4-[(5-{[5-(tert-butyl)-1,3-oxazol-2-yl]methylthio}-1,3-thiazol-2-ylamino)carbonyl]-1-piperidyl}acetylamino)ethoxy]ethyl}ureido)methyl]-3-thia-7-azabicyclo[3.3.0]octa-1,4-dien-7-yl}-2,6-piperidinedione] | 70 to 90 | 0.1 to 0.5 | > 90 | > 90 | > 90
– | – | < 25 | < 25 | 50 to 75 | ≥ 75 | CC(C)(C)c1cnc(CSc2cnc(NC(=O)C3CCN(CC(=O)NCCOCCOCCNC(=O)NCc4cc5c(s4)C(=O)N(C4CCC(=O)NC4=O)C5)CC3)s2)o1 (stereo not drawn) [Compound 13, N-(5-(((5-(tert-butyl)oxazol-2-yl)methyl)thio)thiazol-2-yl)-1-(1-(5-(2,6-dioxopiperidin-3-yl)-6-oxo-5,6-dihydro-4H-thieno[2,3-c]pyrrol-2-yl)-3,14-dioxo-7,10-dioxa-2,4,13-triazapentadecan-15-yl)piperidine-4-carboxamide] | > 90 | ≤ 0.1 | > 90 | > 90 | > 90

The next lines start with the compound.

SMILES | Dmax at 1 µM (IKAROS) [%] | Dmax at 1 µM (GSPT1) [%] | Dmax at 0.1 µM (CDK16) [%] | Dmax at 1 µM (CDK16) [%] | Dmax at 0.1 µM (CDK9) [%] | Dmax at 1 µM (CDK9) [%] | inhibition at 1 µM (TNF-α) [%] | fold induction at 1 µM (IL-2) | inhibition at 1 µM (IL-1β) [%] | inhibition at 1 µM (IL-6) [%] | viability at 1 µM (MOLM-13 cells) [%]
Cn1ncc(-c2cc(N[C@H]3CC[C@H](NCCCCCCCCNC(=O)NCc4cc5c(s4)C(=O)N(C4CCC(=O)NC4=O)C5)CC3)ncc2F)c1CC1CC1 (stereo partly drawn) [Compound 59, 1-(8-(((1r,4r)-4-((4-(5-(cyclopropylmethyl)-1-methyl-1H-pyrazol-4-yl)-5-fluoropyridin-2-yl)amino)cyclohexyl)amino)octyl)-3-((5-(2,6-dioxopiperidin-3-yl)-6-oxo-5,6-dihydro-4H-thieno[2,3-c]pyrrol-2-yl)methyl)urea] | – | – | – | – | – | – | < 50 | 0.5 to 1 | 70 to 90 | 70 to 90 | > 90
Cn1ncc(-c2nc(N[C@H]3CC[C@H](NCCCCCCNC(=O)NCc4cc5c(s4)C(=O)N(C4CCC(=O)NC4=O)C5)CC3)ncc2F)c1CC1CC1 (stereo partly drawn) [Compound 21, 1-(6-(((1r,4r)-4-((4-(5-(cyclopropylmethyl)-1-methyl-1H-pyrazol-4-yl)-5-fluoropyrimidin-2-yl)amino)cyclohexyl)amino)hexyl)-3-((5-(2,6-dioxopiperidin-3-yl)-6-oxo-5,6-dihydro-4H-thieno[2,3-c]pyrrol-2-yl)methyl)urea] | ≥ 75 | – | – | – | – | – | < 50 | 0.1 to 0.5 | < 50 | < 50 | > 90
Cc1nc2c(CNC(=O)NCCCCCCCCN[C@H]3CC[C@H](Nc4ncc(Cl)c(-c5cnn(C)c5CC5CC5)n4)CC3)scc2c(=O)n1C1CCC(=O)NC1=O (stereo partly drawn) [Compound 61, 1-(8-(((1r,4r)-4-((5-chloro-4-(5-(cyclopropylmethyl)-1-methyl-1H-pyrazol-4-yl)pyrimidin-2-yl)amino)cyclohexyl)amino)octyl)-3-((3-(2,6-dioxopiperidin-3-yl)-2-methyl-4-oxo-3,4-dihydrothieno[3,4-d]pyrimidin-7-yl)methyl)urea] | 25 to 50 | – | – | – | – | – | > 90 | 0.1 to 0.5 | > 90 | > 90 | > 90
Cn1ncc(-c2cc(N[C@H]3CC[C@H](NCC(=O)NCCNCC(=O)NCc4cc5c(s4)C(=O)N(C4CCC(=O)NC4=O)C5)CC3)ncc2F)c1CC1CC1 (stereo partly drawn) [Compound 63, 2-(((1r,4r)-4-((4-(5-(cyclopropylmethyl)-1-methyl-1H-pyrazol-4-yl)-5-fluoropyridin-2-yl)amino)cyclohexyl)amino)-N-(2-((2-(((5-(2,6-dioxopiperidin-3-yl)-6-oxo-5,6-dihydro-4H-thieno[2,3-c]pyrrol-2-yl)methyl)amino)-2-oxoethyl)amino)ethyl)acetamide] | 25 to 50 | < 25 | – | – | – | – | – | > 1 | – | – | > 90
